Data taken from PubChem BioAssay (NCI).
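How tested: cells in 96-well plates exposed to compound for 48 hours at five concentrations. Abbreviation: GI50, concentration required for 50% inhibition of growth. The concentration for full growth arrest is given as TGI.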

Legend:
Assay in all cases: NCI-60 cell line screen, 48 h
NCI-H460 lung = system: NCI-H460 lung
NCI-H522 lung = system: NCI-H522 lung
NCI/ADR-RES ovarian = system: NCI/ADR-RES ovarian
OVCAR-3 ovarian = system: OVCAR-3 ovarian
OVCAR-4 ovarian = system: OVCAR-4 ovarian
OVCAR-5 ovarian = system: OVCAR-5 ovarian
OVCAR-8 ovarian = system: OVCAR-8 ovarian
PC-3 prostate = system: PC-3 prostate
RPMI-8226 leukemia = system: RPMI-8226 leukemia
RXF 393 renal = system: RXF 393 renal
SF-268 CNS = system: SF-268 CNS
SF-295 CNS = system: SF-295 CNS
SF-539 CNS = system: SF-539 CNS
SK-MEL-2 melanoma = system: SK-MEL-2 melanoma
SK-MEL-28 melanoma = system: SK-MEL-28 melanoma
SK-MEL-5 melanoma = system: SK-MEL-5 melanoma
SK-OV-3 ovarian = system: SK-OV-3 ovarian
SN12C renal = system: SN12C renal
SNB-19 CNS = system: SNB-19 CNS
SNB-75 CNS = system: SNB-75 CNS
SR leukemia = system: SR leukemia
SW-620 colon = system: SW-620 colon
T-47D breast = system: T-47D breast
TK-10 renal = system: TK-10 renal
U251 CNS = system: U251 CNS
UACC-257 melanoma = system: UACC-257 melanoma
UACC-62 melanoma = system: UACC-62 melanoma
UO-31 renal = system: UO-31 renal

`CN1CCN(Cc2ccc(NC(=O)c3cncc(C#Cc4cnn5cccnc45)c3)cc2C(F)(F)F)CC1` was tested. Which GI50 (NCI-H460 lung) did it give?
Its GI50 is 2000 nM.

What about the TGI (NCI-H460 lung) of the same molecule?
Its TGI is 4.72 µM.

What about the GI50 (NCI-H522 lung) of the same molecule?
The GI50 was 1710 nM.

And the TGI (NCI-H522 lung)?
The TGI was 3.51 µM.

And the GI50 (NCI/ADR-RES ovarian)?
The GI50 was 3.49 µM.

What about the TGI (NCI/ADR-RES ovarian) of the same molecule?
Its TGI is 12.7 µM.

And the GI50 (OVCAR-3 ovarian)?
Its GI50 is 3.88 µM.

And the TGI (OVCAR-3 ovarian)?
Its TGI is 12.9 µM.

And the GI50 (OVCAR-4 ovarian)?
The GI50 was 2880 nM.

And the TGI (OVCAR-4 ovarian)?
The TGI was 13.1 µM.

What about the GI50 (OVCAR-5 ovarian) of the same molecule?
The GI50 was 2450 nM.

What about the TGI (OVCAR-5 ovarian) of the same molecule?
Its TGI is 12.1 µM.

What about the GI50 (OVCAR-8 ovarian) of the same molecule?
The GI50 was 2870 nM.

And the TGI (OVCAR-8 ovarian)?
The TGI was 10.4 µM.

What about the GI50 (PC-3 prostate) of the same molecule?
The GI50 was 3.06 µM.

And the TGI (PC-3 prostate)?
The TGI was 13.3 µM.

What about the GI50 (RPMI-8226 leukemia) of the same molecule?
Its GI50 is 1830 nM.

And the TGI (RPMI-8226 leukemia)?
Its TGI is 5.1 µM.

What about the GI50 (RXF 393 renal) of the same molecule?
The GI50 was 2250 nM.

What about the TGI (RXF 393 renal) of the same molecule?
The TGI was 4.52 µM.

And the GI50 (SF-268 CNS)?
Its GI50 is 2540 nM.

And the TGI (SF-268 CNS)?
The TGI was 6.33 µM.

What about the GI50 (SF-295 CNS) of the same molecule?
The GI50 was 10.9 µM.

And the TGI (SF-295 CNS)?
The TGI was 23.2 µM.

And the GI50 (SF-539 CNS)?
The GI50 was 1120 nM.

What about the TGI (SF-539 CNS) of the same molecule?
The TGI was 2750 nM.

What about the GI50 (SK-MEL-2 melanoma) of the same molecule?
Its GI50 is 1040 nM.

And the TGI (SK-MEL-2 melanoma)?
Its TGI is 2550 nM.

And the GI50 (SK-MEL-28 melanoma)?
Its GI50 is 1860 nM.

And the TGI (SK-MEL-28 melanoma)?
Its TGI is 8.55 µM.

And the GI50 (SK-MEL-5 melanoma)?
The GI50 was 2600 nM.

What about the TGI (SK-MEL-5 melanoma) of the same molecule?
The TGI was 8.94 µM.

And the GI50 (SK-OV-3 ovarian)?
Its GI50 is 3.3 µM.

What about the TGI (SK-OV-3 ovarian) of the same molecule?
The TGI was 10.6 µM.

What about the GI50 (SN12C renal) of the same molecule?
The GI50 was 2660 nM.

And the TGI (SN12C renal)?
Its TGI is 10.4 µM.

What about the GI50 (SNB-19 CNS) of the same molecule?
Its GI50 is 4.05 µM.

What about the TGI (SNB-19 CNS) of the same molecule?
The TGI was 12.6 µM.

And the GI50 (SNB-75 CNS)?
Its GI50 is 2840 nM.

What about the TGI (SNB-75 CNS) of the same molecule?
Its TGI is 12.3 µM.

And the GI50 (SR leukemia)?
The GI50 was 2450 nM.

And the TGI (SR leukemia)?
Its TGI is 6.4 µM.

And the GI50 (SW-620 colon)?
The GI50 was 1670 nM.

And the TGI (SW-620 colon)?
The TGI was 5.01 µM.

What about the GI50 (T-47D breast) of the same molecule?
The GI50 was 6.08 µM.

And the TGI (T-47D breast)?
Its TGI is 22 µM.

And the GI50 (TK-10 renal)?
Its GI50 is 3.99 µM.

What about the TGI (TK-10 renal) of the same molecule?
Its TGI is 9.78 µM.

And the GI50 (U251 CNS)?
Its GI50 is 3.3 µM.

And the TGI (U251 CNS)?
Its TGI is 14.1 µM.

And the GI50 (UACC-257 melanoma)?
The GI50 was 2920 nM.

What about the TGI (UACC-257 melanoma) of the same molecule?
Its TGI is 12.2 µM.

What about the GI50 (UACC-62 melanoma) of the same molecule?
The GI50 was 2900 nM.

And the TGI (UACC-62 melanoma)?
Its TGI is 13.3 µM.

And the GI50 (UO-31 renal)?
The GI50 was 2280 nM.

What about the TGI (UO-31 renal) of the same molecule?
Its TGI is 8.57 µM.
